# “Also recorded” adds a separate entry of the source.
# Columns and labels:
# [1] = tested on: primary oligodendrocyte and oligodendrocyte precursor cells (OL/OPCs); test: Primary OPC culture differentiation (MBP immunostaining, DAPI); type: cell-based, mouse; conditions: for number of MBP+ OLs (differentiated OLs) / branched OLs / complex branching cells: 10 nM, vs vehicle-treated cells; for number of MBP+ OLs (differentiated OLs): 3 days in differentiating media
# Experimental: Primary OPC Cultures: Primary OPCs, isolated from postnatal day P1 C57BL/6 male and female mouse cortices as described previously, were treated with 10 nM ligands in differentiating medium for 3 days (Tiwari-Woodruff et al., 2001; Tiwari-Woodruff et al., 2006). Primary OPC were cultured into 8-well chamber slides (three wells per condition, 2.5×10^5 cells/well) for three days to attach and […] in differentiating media (consisting of DMEM-F12 with triiodothyronine- and thyroxine-containing Sato as well as penicillin, streptomycin, insulin, N-acetyl-L-cysteine, forskolin, ciliary neurotrophic factor, neurotrophin-3, and platelet-derived growth factor receptor α (Tiwari-Woodruff et al., 2001)). A positive control (IndCl), a negative control (Vehicle consisting of the media+EtOH mixture used to dissolve IndCl), and a normal control (differentiating media alone) were used for comparison. At the end of the treatment period, cells were fixed, stained by immunocytochemistry (primary antibody polyclonal chicken myelin basic protein (MBP, Millipore AB9348), shown in green and co-stained with nuclear stain—DAPI shown in blue), and imaged with an Olympus BX61 confocal microscope (Olympus America Inc., Center Valley, Pa.) at 10× magnification (3 images per well). Cells were counted using the ImageJ multipoint tool, and counts were then divided by the image area (mm^2). Average cell density for each condition was then divided by the normal condition cell density. Analysis of OL differentiation consisted of counting the number of MBP+ cells and process extensions that were longer than the respective cell-body diameter and tracking the number of highly branched MBP+ cells (with three or more processes) (Monnerie et al., 2017). Statistics were performed using GraphPad Prism 6 Software (La Jolla, Calif.). One-way ANOVA with Tukey's posthoc test for multiple comparisons was used to generate p-values, and data are presented as mean SEM (with α≤0.05).
# Primary OPC cultures were used as a convenient cell-based assay to characterize the proliferation and/or differentiation effects of the new IndCl analogues and to select those most suitable for more extensive studies to be done in comparison with the parental ligand, IndCl. 48 hours after plating OPCs, one of seven IndCl analogues (FIG. 1A) was added to differentiating media at a concentration of 10 nM (De Angelis et al., 2005; Saijo et al., 2011). OPCs were allowed to differentiate for 3 days in the presence of IndCl or analogues, at which point they were fixed, immunostained for OPC/OL markers, and quantified. […] The total number of cells in culture was not altered by any treatment (FIGS. 1B and 1D).
# [2] = tested on: callosal axons; test: Callosal compound action potential (CAP) recordings in brain slices of EAE mice; type: in vivo, mouse; conditions: vs vehicle; for N1 CAP amplitude / N2 CAP amplitude: therapeutic treatment (postEAE)
# Experimental: Electrophysiology: To assess functional conductivity across the CC, electrophysiological recordings of compound action potentials (CAPs) were measured as previously described (Crawford et al., 2009; Crawford et al., 2010). Coronal brain slices were prepared from adult (3 to 4 month old) C57BL/6 female mice. Briefly, mice were deeply anesthetized under isoflurane and decapitated. The brain was removed and submerged in partially frozen “slushy” solution of slicing buffer containing (in mM): 87 NaCl, 75 sucrose 2.5 KCl, 0.5 CaCl2), 7 MgCl2, 1.25 NaH2PO4, 25 NaHCO3, 10 glucose, 1.3 ascorbic acid, 0.1 kynurenic acid, 2.0 pyruvate, and 3.5 MOPS, bubbled with 5% CO2+95% O2 (Lauderdale et al., 2015). Coronal slices (350 μm) were prepared using a Leica VT 1000S Vibratome (Bannockburn, Ill.) and subsequently incubated for 45 minutes at 35° C. in slicing buffer. Following incubation, slices were allowed to cool to room temperature for 15 minutes then transferred to ACSF […] containing (in mM): 125 NaCl, 2.5 KCl, 2.5 CaCl2), 1.3 MgCl2, 1.25 NaH2PO4, 26.0 NaHCO3, and 15 glucose, oxygenated with 5% CO2+95% O2. Slices were equilibrated in the standard ACSF for a minimum of 15-20 minutes prior to electrophysiological recordings. During electrophysiological recordings, slices were continuously perfused with oxygenated ACSF maintained at a flow rate of 1 mL/min. For recording CAPs, an Axon Digidata 1550 was used with a Multiclamp 700B Amplifier and PClamp 10.4 Software (Molecular Devices, Sunnyvale, Calif.). Continuous recordings for CC conduction experiments were low-pass filtered at 10 kHz and digitized at 200 kHz. All experiments were conducted at room temperature (24-26° C.). To stimulate the CC fiber tract, a concentric bipolar stimulating electrode (FHC Neural microTargeting Worldwide, Bowdoin, Me., USA) was placed approximately 1 mm away across from a recoding electrode (glass micropipette filled with ACSF) with a resistance of 1-3 MO. To elicit CAPs, an episodic stimulation protocol was created consisting of 8 consecutive sweeps, each 12 ms long, with a 5-sec delay between sweeps and an immediate stimulus (0.01 ms duration) after the start of each sweep (Crawford et al., 2009a). Stimulus intensity was adjusted manually using an ISO-Flex stimulator (A.M.P.I). Standardized input-output plots were generated in current clamp mode for each slice by averaging at least 4 consecutive sweeps together to […] the signal-to-noise ratio. […] Electrophysiology data were analyzed using Clampfit 10.4 software (Molecular Devices, Sunnyvale, Calif.) and OriginPro 2016 64 Bit (OriginLab Corporation)
# Large white matter tracts, such as the CC, are especially vulnerable to demyelination and axonal damage in MS and EAE (Ozturk et al., 2010; Mangiardi et al., 2011). Compound action potential (CAP) recordings are a valuable technique for assessing demyelination and damage in these areas through their impact on functional conductivity (Crawford et al., 2009; Crawford et al., 2010; Moore et al., 2013).
# [3] = tested on: EAE mice; test: EAE clinical disease score; type: in vivo, mouse; set-up: key to Disability: Disease score: ‘+’ indicate marker was significantly (p ≤ 0.05) increased in treatment group relative to vehicle; ‘−’ indicates marker was significantly (p ≤ 0.05) decreased in treatment group relative to vehicle; ○: ‘o’ indicate marker did not change relative to vehicle; conditions: for Disability: Disease score / EAE clinical scores / disease progression: vs vehicle; for EAE clinical symptoms during peak disease: therapeutic 5 mg/kg/d from day 8 (postEAE); for EAE clinical scores / disease progression: therapeutic s.c. from day 8 (postEAE)
# [4] = Post (therapeutic, postEAE) treatment of EAE mice
SMILES,number of MBP+ OLs (differentiated OLs) [1],branched OLs / complex branching cells [1],MBP+/DAPI ratio (OPC differentiation) ([1]; FIG. 10B),"Electrophysiology: N1 amplitude [2, 4]",N1 CAP amplitude [2],"Disability: Disease score [3, 4]",EAE clinical symptoms during peak disease [3],EAE clinical scores / disease progression [3],"Electrophysiology: N2 amplitude [2, 4]",N2 CAP amplitude [2],N2 CAP amplitude ([2]; listed as Ind-o-Cl),"Disability: Disease score ([3]; Pre (prophylactic, preEAE) E2 treatment of EAE mice)"
"Cc1cc(O)ccc1-n1nc2ccc(O)cc2c1Cl [IndCl-o-Me, 3-chloro-2-(4-hydroxy-2-methylphenyl)-2H-indazol-5-ol]",significant increase; also recorded: significantly increased,increase in the percentage of branched OLs,greatest increase,+,improved,−,did not significantly affect EAE clinical symptoms,reversed disease progression over time; also recorded: significantly reduced,,,,
"Oc1ccc(-n2nc3ccc(O)cc3c2Cl)cc1 [IndCl, chloroindazole]",significantly increased,,,+,significant improvement; also recorded: improved,○,did not significantly affect EAE clinical symptoms,reversed disease progression over time,,,,
"Oc1ccc(-n2nc3ccc(O)cc3c2Cl)c(Cl)c1 [IndCl-o-Cl, 3-chloro-2-(2-chloro-4-hydroxyphenyl)-2H-indazol-5-ol]",significant increase; also recorded: significantly increased,increase in the percentage of branched OLs,,+,improved,−,did not significantly affect EAE clinical symptoms,reversed disease progression over time; also recorded: significantly reduced,+,increased,small but significant increase,
"C[C@]12CC[C@@H]3c4ccc(O)cc4CC[C@H]3[C@@H]1CC[C@@H]2O [E2, 170 estradiol]",,,,,,○,,,,,,−

# From patent publication US11673866B2, “Estrogen receptor beta ligands for the prevention and treatment of multiple sclerosis (MS) and other demyelinating, inflammatory and neurodegenerative diseases” (The Board of Trustees of the University of Illinois, priority 2018, dated 2023)
